# Patent US6620936B2, “9-aminoacridine derivatives and process for the preparation thereof” (Samjin Pharmaceutical Co., Ltd., priority 1998, dated 2003)
# Tests used:
# Topoisomerase II = experiment: Inhibition effects against the Topoisomerase II activities (DNA relaxation assay, DNA cleavage assay); assay type: biochemical; settings: supercoiled pBR322 DNA substrate, 30 minutes at 37° C.
# Description: Inhibition effects against the Topoisomerase II activities
# The present compounds were tested for inhibition of Topoisomerase II activity by means of the relaxation assay using supercoiled pBR322 DNA as the substrate. Topo II and a sample inhibitor were added to a reaction system (50 mmol Tris-HCl, pH 7.5, 50 mmol KCl, 20 mmol MgCl2, 0.5 mmol EDTA, 2 mmol ATP, 60 μg/ml BSA) containing supercoiled pBR322 DNA and reacted for 30 minutes at 37° C. Then, a quarter by volume of Stop buffer (5% SDS, 50 mmol EDTA, 30% glycerol, 0.1 mg/ml xylene cyanol, 0.1 mg/ml BPB) was added to the reaction system to stop the reaction. The resulting product went through electrophoresis on 0.7% agarose gel and was stained by ethidium bromide solution. Mobility of DNA was measured under ultraviolet rays.
# Topo II and a sample inhibitor were added to cleavage buffer (30 mmol Tris-HCl, pH 7.5, 60 mmol KCl, 10 mmol MgCl2, 15 mmol β-mercaptoethanol, 30 μg /ml BSA) containing supercoiled pBR322 DNA and allowed to react for 30 minutes at 37° C. Then, […] by 1% was added to the reaction system to stop the reaction. Then, proteinase K was added thereto up to the concentration of 50 μg/ml and allowed to react for 30 minutes at 56° C. The reaction product was treated with phenol/chloroform to purify DNA, and the obtained DNA was loaded on agarose gel electrophoresis, transferred to nitrocellulose membrane and hybridized with probe DNA labelled with radioisotope. Then, the nitrocellulose membrane was covered with an X-ray film and exposed to be sensitized and developed, whereby the degree of cleavage of DNA was measured.
# [1] = system: P388 (mouse lymphoid neoplasma cell); experiment: In vitro antitumor effects against animal leukemia cells, dye exclusion assay; assay type: cell-based; settings: 48 hours, trypan blue dye exclusion, read-out: P388, concentration showing 50% cell growth inhibition (IC50)
# Description: In vitro antitumor effects against animal leukemia cells.
# Tumor cell lines: P388 (mouse lymphoid neoplasma cell)
# B. Method: Dye Exclusion Assay.
# 1) The concentration of P388 cells being cultured in RPMI 1640 media containing 10% FBS was adjusted to 1×10^6 cells/ml.
# 2) Each sample drug of a concentration diluted in the ratio of log dose was added into cell culture media and cultured at 37° C. for 48 hours in […] incubator, and then viable cell number was measured by dye exclusion test using trypan blue.
# [2] = Acute toxicity test (LD50), Litchfield-Wilcoxon method; settings: mouse, in vivo, ip; male ICR mice, observed 14 days
# Description: Acute Toxicity Test (LD50):
# a) Method: Litchfield-Wilcoxon Method.
# 6-week-old ICR mice(male 30±2.0 g) were fed freely with solid feed and water at room temperature, 23±1° C. and at humidity 60±5%. Sample drugs were injected into the abdominal cavities of mice. Each group comprised 6 mice. Observed during 14 days, external appearances and life or death thereof were recorded, and also, visible lesions were observed from dead mice by dissection. LD50 value was calculated by Litchfield-wilcoxon method.
# [3] = system: A549 (human non-small lung cell); experiment: In vitro antitumor effect against human tumor cell lines, SRB assay; assay type: cell-based; settings: 48 hours, A549 cells
# Description: (§1) In vitro antitumor effect against human tumor cell lines.
# A. Tumor cell lines : A549 (human non-small lung cell)
# (§2) a. Human solid tumor cell lines, A549(non-small lung cell), SKMEL-2(melanoma), HCT-15(colon), SKOV-3(ovarian) and XF-498(CNS) were cultured in 5% CO2, incubators using the RPMI 1640 media containing 10% FBS at 37° C., while with transfer-culturing successively once or twice per week. Cell cultures were dissolved in a solution of 0.25% trysin and 3 mmol CDTA PBS(−) to separate the cells sticked on the culture media.
# (§3) b. 5×10^3˜2×10^4 cells were added into each well of 96-well plate and cultured in 5% CO2, incubator at 37° C. for 24 hours.
# (§4) c. Each sample drug was dissolved in a little DMSO and diluted with the used medium to a prescribed concentration for experiment, while the final concentration of DMSO was adjusted below 0.5%.
# (§5) d. Medium of each well cultured for 24 hours as above b. was removed by aspiration. Each 200 μl of drug samples prepared in c. was added into each well and tine wells were cultured for 48 hours. Tz (time zero) plates were collected at the point of time drugs were added.
# (§6) e. According to the SRB assay method, cell fixing with TCA, staining with 0.4% SRB solution, washing with 1% acetic acid and elution of dye with 10 mmol Tris solution were carried out on Tz plates and culture-ended plates, and then, OD values were measured at 520 nm.
# (§7) a. Time zero (Tz) value was determined with measuring the SRB protein value at the point of time drugs were added.
# (§8) b. Control value (C) was determined with the OD value of an well untreated with drug.
# (§9) c. Drug-treated test value (T) was determined with the OD value of drug-treated well.
# (§10) d. Effects of drugs were estimated with growth stimulation, net growth inhibition and net killing calculated from Tz, C and T values.
# (§11) e. If T≧Tz, cellular response function was calculated by 100×(T−Tz)/(C−Tz), and, if T≦Tz, by 100×(T−Tz)/Tz.
# HCT-15 (human colon) = experiment: as above; assay type: cell-based; settings: 48 hours, HCT 15 cells
# Description: as §1, §2, §3, §4, §5, §6, §7, §8, §9, §10, §11
# SKMEL-2 (human melanoma) = experiment: as above; assay type: cell-based; settings: 48 hours, SK-MEL-2 cells
# Description: as §1, §2, §3, §4, §5, §6, §7, §8, §9, §10, §11
# SKOV-3 (human ovarian) = experiment: as above; assay type: cell-based; settings: 48 hours, SK-OV-3 cells
# Description: as §1, §2, §3, §4, §5, §6, §7, §8, §9, §10, §11
# XF-498 (human CNS) = experiment: as above; assay type: cell-based; settings: 48 hours, XF-498 cells
# Description: as §1, §2, §3, §4, §5, §6, §7, §8, §9, §10, §11
Compound,"IC50 (μg/ml), inhibition of Topoisomerase II activity (Topoisomerase II) [µg/mL]",IC50 [1] [µg/mL],LD50 at 14 days [2] [mg/kg],ED50 A 549 [3] [µg/mL],ED50 HCT 15 (HCT-15 (human colon)) [µg/mL],ED50 SK-MEL-2 (SKMEL-2 (human melanoma)) [µg/mL],ED50 SK-OV-3 (SKOV-3 (human ovarian)) [µg/mL],ED50 XF-498 (XF-498 (human CNS)) [µg/mL]
"COc1cc(NC(=S)OCc2cc(N)cc(Nc3c4ccccc4nc4ccccc34)c2)cc(OC)c1OC [Example 19, [3-(acridin-9-yl)amino-5-amino]benzyl N-(3,4,5-trimethoxyphenyl)thiocarbamate]",5,–,–,–,–,–,–,–
"Nc1cc(COC(=O)Nc2cc(F)cc(F)c2)cc(Nc2c3ccccc3nc3ccccc23)c1 [Example 12, [3-(acridin-9-yl)amino-5-amino]benzyl N-(3,5-difluorophenyl) carbamate]",0.5,1.2,150,–,–,–,–,–
"COc1cccc(NC(=O)OCc2cccc(Nc3c4ccccc4nc4ccccc34)c2)c1 [Example 20, 3-(acridin-9-yl)aminobenzyl N-(3-methoxyphenyl) carbamate]",3,–,–,–,–,–,–,–
"Cc1cc(C)cc(NC(=O)OCc2cc(N)cc(Nc3c4ccccc4nc4ccccc34)c2)c1 [Example 6, [3-(acridin-9-yl)amino-5-amino]benzyl N-(3,5-dimethylphenyl) carbamate]",3,0.8,–,0.72,0.33,0.40,0.36,0.37
"N[C@@H](Cc1ccccc1)C(=O)Nc1cc(CO)cc(Nc2c3ccccc3nc3ccccc23)c1 [Example 46, N-[3-(acridin-9-yl)amino-5-(hydroxymethyl)phenyl](2S)-2-amino-3-phenylpropaneamide]",3,–,–,–,–,–,–,–
"COc1cc(NC(=S)OCc2cc(N)cc(Nc3c4ccccc4nc4ccccc34)c2)cc(OC)c1 [Example 18, [3-(acridin-9-yl)amino-5-amino]benzyl N-(3,5-dimethoxyphenyl)thiocarbamate]",3,–,–,–,–,–,–,–
"Nc1cc(COC(=O)Nc2cccc(Cl)c2)cc(Nc2c3ccccc3nc3ccccc23)c1 [Example 14, [3-(acridin-9-yl)amino-5-amino]benzyl N-(3-chlorophenyl) carbamate]",1,–,–,–,–,–,–,–
"COc1cc(NC(=O)OCc2cccc(Nc3c4ccccc4nc4ccccc34)c2)cc(OC)c1OC [Example 22, 3-(acridin-9-yl)aminobenzyl N-(3,4,5-trimethoxyphenyl) carbamate]",5,–,–,–,–,–,–,–
"COc1cccc(NC(=O)OCc2cc(N)cc(Nc3c4ccccc4nc4ccccc34)c2)c1 [Example 2, [3-(acridin-9-yl)amino-5-amino]benzyl N-(3-methoxyphenyl)carbamate]",3,–,–,–,0.97,–,0.68,0.71
"COc1cc(NC(=O)OCc2cc(N)cc(Nc3c4ccccc4nc4ccccc34)c2)cc(OC)c1 [Example 3, [3-(acridin-9-yl)amino-5-amino]benzyl N-(3,5-dimethoxyphenyl)carbamate]",3,–,–,–,–,–,–,–
"Nc1cc(COC(=O)Nc2ccccc2)cc(Nc2c3ccccc3nc3ccccc23)c1 [Example 1, [3-(acridin-9-yl)amino-5-amino]benzyl N-phenylcarbamate]",1,0.9,–,0.96,0.57,0.49,1.15,0.44
"COc1cc(NC(=O)OCc2cccc(Nc3c4ccccc4nc4ccccc34)c2)cc(OC)c1 [Example 21, 3-(acridin-9-yl)aminobenzyl N-(3,5-dimethoxyphenyl) carbamate]",3,–,–,–,–,–,–,–
"N.N.[Cl][Pt][Cl] [Cisplatin, reference compound]",–,–,–,0.81,3.03,0.71,0.71,0.77
"CC=Nc1cc(CO)cc(Nc2c3ccccc3nc3ccccc23)c1 [Example 35, 3-(acridin-9-yl)amino-5-(ethylideneamino)phenylmethanol]",5,–,–,–,–,–,–,–
"CCC=Nc1cc(CO)cc(Nc2c3ccccc3nc3ccccc23)c1 [Example 36, 3-(acridin-9-yl)amino-5-(propylideneamino)phenylmethanol]",3,–,–,–,–,–,–,–
"COc1cc(NC(=O)OCc2cc(N)cc(Nc3c4ccccc4nc4ccccc34)c2)cc(OC)c1OC [Example 4, [3-(acridin-9-yl)amino-5-amino]benzyl N-(3,4,5-trimethoxyphenyl) carbamate]",5,–,–,0.19,0.24,0.20,0.19,0.23
"C[C@H](N)C(=O)Nc1cc(CO)cc(Nc2c3ccccc3nc3ccccc23)c1 [Example 45, N-[3-(acridin-9-yl)amino-5-(hydroxymethyl)phenyl](2S)-2-aminopropaneamide]",0.5,–,–,0.01,0.86,0.25,0.21,0.88
"CCCC=Nc1cc(CO)cc(Nc2c3ccccc3nc3ccccc23)c1 [Example 37, 3-(acridin-9-yl)amino-5-(butylideneamino)phenylmethanol]",5,–,–,0.90,0.35,0.89,0.93,0.36
